Assay results published in PubChem BioAssay (NCI).
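Cells were grown in 96-well plates and exposed to each compound for 48 hours at five concentrations; endpoints were interpolated linearly between bracketing concentrations, or set to the highest concentration if not reached. GI50 is the concentration that inhibits growth by half. TGI denotes the concentration required for complete inhibition of growth.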

Legend:
Experiment in all cases: NCI-60 cell line screen, 48 h; in the data active = GI50 below about 0.43 µM; inactive = the rest
786-0 renal = tested on: 786-0 renal
A498 renal = tested on: A498 renal
A549 NSCLC = tested on: A549 NSCLC
ACHN renal = tested on: ACHN renal
BT-549 breast = tested on: BT-549 breast
CAKI-1 renal = tested on: CAKI-1 renal
CCRF-CEM leukemia = tested on: CCRF-CEM leukemia
COLO 205 colon = tested on: COLO 205 colon
DU-145 prostate = tested on: DU-145 prostate
EKVX NSCLC = tested on: EKVX NSCLC
HCC-2998 colon = tested on: HCC-2998 colon
HCT-116 colon = tested on: HCT-116 colon
HCT-15 colon = tested on: HCT-15 colon
HL-60(TB) leukemia = tested on: HL-60(TB) leukemia
HOP-62 NSCLC = tested on: HOP-62 NSCLC
HOP-92 NSCLC = tested on: HOP-92 NSCLC
HS 578T breast = tested on: HS 578T breast
HT29 colon = tested on: HT29 colon
IGROV1 ovarian = tested on: IGROV1 ovarian
K-562 leukemia = tested on: K-562 leukemia
KM12 colon = tested on: KM12 colon
LOX IMVI melanoma = tested on: LOX IMVI melanoma
M14 melanoma = tested on: M14 melanoma
MALME-3M melanoma = tested on: MALME-3M melanoma
MCF7 breast = tested on: MCF7 breast
MDA-MB-231 breast = tested on: MDA-MB-231 breast
MDA-MB-435 = tested on: MDA-MB-435
MOLT-4 leukemia = tested on: MOLT-4 leukemia
NCI-H226 lung = tested on: NCI-H226 lung
NCI-H23 lung = tested on: NCI-H23 lung
NCI-H460 lung = tested on: NCI-H460 lung
NCI-H522 lung = tested on: NCI-H522 lung
NCI/ADR-RES ovarian = tested on: NCI/ADR-RES ovarian
OVCAR-3 ovarian = tested on: OVCAR-3 ovarian
OVCAR-4 ovarian = tested on: OVCAR-4 ovarian
OVCAR-5 ovarian = tested on: OVCAR-5 ovarian
OVCAR-8 ovarian = tested on: OVCAR-8 ovarian
PC-3 prostate = tested on: PC-3 prostate
RPMI-8226 leukemia = tested on: RPMI-8226 leukemia
SF-268 CNS = tested on: SF-268 CNS
SF-295 CNS = tested on: SF-295 CNS
SF-539 CNS = tested on: SF-539 CNS
SK-MEL-2 melanoma = tested on: SK-MEL-2 melanoma
SK-MEL-28 melanoma = tested on: SK-MEL-28 melanoma
SK-MEL-5 melanoma = tested on: SK-MEL-5 melanoma
SK-OV-3 ovarian = tested on: SK-OV-3 ovarian
SN12C renal = tested on: SN12C renal
SNB-19 CNS = tested on: SNB-19 CNS
SNB-75 CNS = tested on: SNB-75 CNS
SR leukemia = tested on: SR leukemia
SW-620 colon = tested on: SW-620 colon
T-47D breast = tested on: T-47D breast
TK-10 renal = tested on: TK-10 renal
U251 CNS = tested on: U251 CNS
UACC-257 melanoma = tested on: UACC-257 melanoma
UACC-62 melanoma = tested on: UACC-62 melanoma
UO-31 renal = tested on: UO-31 renal

O=C(CCCCCCNC(=O)C(O)(O)C(F)(F)F)Nc1ccc(Br)cc1
> 33 µM: TGI (786-0 renal) | TGI (A549 NSCLC) | TGI (BT-549 breast) | TGI (CAKI-1 renal) | TGI (CCRF-CEM leukemia) | TGI (DU-145 prostate) | TGI (EKVX NSCLC) | TGI (HCT-116 colon) | TGI (HL-60(TB) leukemia) | TGI (HOP-62 NSCLC) | TGI (HT29 colon) | TGI (K-562 leukemia) | TGI (M14 melanoma) | TGI (MALME-3M melanoma) | TGI (MCF7 breast) | TGI (MDA-MB-435) | TGI (MOLT-4 leukemia) | TGI (NCI-H226 lung) | TGI (NCI-H460 lung) | TGI (OVCAR-4 ovarian) | TGI (OVCAR-8 ovarian) | TGI (PC-3 prostate) | TGI (RPMI-8226 leukemia) | TGI (SF-539 CNS) | TGI (SNB-75 CNS) | TGI (SR leukemia) | TGI (TK-10 renal) | TGI (UACC-257 melanoma)
14.8 µM: TGI (UO-31 renal)
13.2 µM: TGI (HCC-2998 colon)
16.6 µM: TGI (MDA-MB-231 breast)
20.1 µM: TGI (SK-MEL-2 melanoma)
18.1 µM: TGI (SNB-19 CNS)
21.8 µM: TGI (SF-268 CNS)
12.5 µM: TGI (OVCAR-5 ovarian)
17.3 µM: TGI (SK-OV-3 ovarian)
7.5 µM: TGI (LOX IMVI melanoma) | TGI (OVCAR-3 ovarian)
24.6 µM: TGI (SN12C renal)
24.3 µM: TGI (KM12 colon) | TGI (T-47D breast)
14.1 µM: TGI (HCT-15 colon) | TGI (IGROV1 ovarian)
30.1 µM: TGI (HS 578T breast)
17.7 µM: TGI (ACHN renal) | TGI (COLO 205 colon)
18.6 µM: TGI (NCI/ADR-RES ovarian)
6.2 µM: TGI (UACC-62 melanoma)
3.25 µM: TGI (HOP-92 NSCLC)
22.8 µM: TGI (NCI-H522 lung)
19.6 µM: TGI (NCI-H23 lung)
8.17 µM: TGI (SF-295 CNS)
7.16 µM: TGI (SW-620 colon)
9.68 µM: TGI (A498 renal)
18.7 µM: TGI (SK-MEL-28 melanoma)
17.6 µM: TGI (U251 CNS)
inactive: GI50 (786-0 renal) 4.47 µM | GI50 (A498 renal) 1.09 µM | GI50 (A549 NSCLC) 8.39 µM | GI50 (ACHN renal) 2.65 µM | GI50 (BT-549 breast) 6.42 µM | GI50 (CAKI-1 renal) 7.02 µM | GI50 (CCRF-CEM leukemia) 1.9 µM | GI50 (COLO 205 colon) 5.02 µM | GI50 (DU-145 prostate) 5.46 µM | GI50 (EKVX NSCLC) 5.49 µM | GI50 (HCC-2998 colon) 5.35 µM | GI50 (HCT-116 colon) 1.12 µM | GI50 (HCT-15 colon) 5.23 µM | GI50 (HL-60(TB) leukemia) 2.21 µM | GI50 (HOP-62 NSCLC) 4.29 µM | GI50 (HOP-92 NSCLC) 0.554 µM | GI50 (HS 578T breast) 3.84 µM | GI50 (HT29 colon) 5.11 µM | GI50 (IGROV1 ovarian) 4.48 µM | GI50 (K-562 leukemia) 1.2 µM | GI50 (KM12 colon) 4.82 µM | GI50 (LOX IMVI melanoma) 2.9 µM | GI50 (M14 melanoma) 7.12 µM | GI50 (MALME-3M melanoma) 1.54 µM | GI50 (MCF7 breast) 7.77 µM | GI50 (MDA-MB-231 breast) 2.12 µM | GI50 (MDA-MB-435) 3.64 µM | GI50 (MOLT-4 leukemia) 1.42 µM | GI50 (NCI-H226 lung) 8.33 µM | GI50 (NCI-H23 lung) 4.6 µM | GI50 (NCI-H460 lung) 2.41 µM | GI50 (NCI-H522 lung) 4.19 µM | GI50 (NCI/ADR-RES ovarian) 4.12 µM | GI50 (OVCAR-3 ovarian) 2.22 µM | GI50 (OVCAR-4 ovarian) 13.4 µM | GI50 (OVCAR-5 ovarian) 1.96 µM | GI50 (OVCAR-8 ovarian) 2.32 µM | GI50 (PC-3 prostate) 2.86 µM | GI50 (RPMI-8226 leukemia) 1.9 µM | GI50 (SF-268 CNS) 5.78 µM | GI50 (SF-295 CNS) 2.73 µM | GI50 (SF-539 CNS) 5.87 µM | GI50 (SK-MEL-2 melanoma) 3.29 µM | GI50 (SK-MEL-28 melanoma) 2.38 µM | GI50 (SK-MEL-5 melanoma) 4.14 µM | GI50 (SK-OV-3 ovarian) 1.95 µM | GI50 (SN12C renal) 5.01 µM | GI50 (SNB-19 CNS) 5.58 µM | GI50 (SNB-75 CNS) 3 µM | GI50 (SR leukemia) 1.74 µM | GI50 (SW-620 colon) 1.57 µM | GI50 (T-47D breast) 1.69 µM | GI50 (TK-10 renal) 1.09 µM | GI50 (U251 CNS) 3.64 µM | GI50 (UACC-257 melanoma) 6.7 µM | GI50 (UACC-62 melanoma) 1.59 µM | GI50 (UO-31 renal) 1.98 µM
8.46 µM: TGI (SK-MEL-5 melanoma)
